Data as given in ChEMBL document CHEMBL4177690, “(E)-3-(3,4,5-Trimethoxyphenyl)-1-(pyridin-4-yl)prop-2-en-1-one, a heterocyclic chalcone is a potent and selective CYP1A1 inhibitor and cancer chemopreventive agent” (Bioorg Med Chem Lett, 2017).

Columns and labels:
Cytochrome P450 1B1 [1] = molecular target: T1, Cytochrome P450 1B1 (Homo sapiens, UniProt Q16678); test: Inhibition of human CYP1B1 expressed in yeast cells; assay type: cell-based
T1 sequence (Q16678 whole entry): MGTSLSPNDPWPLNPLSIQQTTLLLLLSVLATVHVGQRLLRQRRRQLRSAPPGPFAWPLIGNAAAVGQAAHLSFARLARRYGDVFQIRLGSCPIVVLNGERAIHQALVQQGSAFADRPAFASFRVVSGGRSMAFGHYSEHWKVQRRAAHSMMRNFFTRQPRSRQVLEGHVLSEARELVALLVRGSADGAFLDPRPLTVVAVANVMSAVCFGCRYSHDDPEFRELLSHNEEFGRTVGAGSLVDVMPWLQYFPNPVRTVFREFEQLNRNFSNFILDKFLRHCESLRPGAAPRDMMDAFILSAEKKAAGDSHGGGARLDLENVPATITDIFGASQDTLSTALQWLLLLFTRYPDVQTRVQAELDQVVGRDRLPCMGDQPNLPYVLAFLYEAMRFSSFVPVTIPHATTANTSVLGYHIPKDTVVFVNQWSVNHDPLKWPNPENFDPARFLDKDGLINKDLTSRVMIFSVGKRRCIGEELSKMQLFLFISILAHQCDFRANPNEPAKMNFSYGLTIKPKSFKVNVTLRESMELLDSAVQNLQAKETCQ

Cytochrome P450 1B1 [2] = molecular target: T1, Cytochrome P450 1B1; test: Inhibition of recombinant human CYP1B1 expressed in HEK293 cells using 7-ethoxyresorufin as substrate pretreated for 30 mins followed by substrate addition measured for 60 mins by fluorescence assay; assay type: cell-based
Cytochrome P450 2J2 = molecular target: T2, Cytochrome P450 2J2 (Homo sapiens, UniProt P51589); test: Inhibition of human CYP2J2 expressed in yeast cells; assay type: ADME, cell-based
T2 sequence (P51589 whole entry): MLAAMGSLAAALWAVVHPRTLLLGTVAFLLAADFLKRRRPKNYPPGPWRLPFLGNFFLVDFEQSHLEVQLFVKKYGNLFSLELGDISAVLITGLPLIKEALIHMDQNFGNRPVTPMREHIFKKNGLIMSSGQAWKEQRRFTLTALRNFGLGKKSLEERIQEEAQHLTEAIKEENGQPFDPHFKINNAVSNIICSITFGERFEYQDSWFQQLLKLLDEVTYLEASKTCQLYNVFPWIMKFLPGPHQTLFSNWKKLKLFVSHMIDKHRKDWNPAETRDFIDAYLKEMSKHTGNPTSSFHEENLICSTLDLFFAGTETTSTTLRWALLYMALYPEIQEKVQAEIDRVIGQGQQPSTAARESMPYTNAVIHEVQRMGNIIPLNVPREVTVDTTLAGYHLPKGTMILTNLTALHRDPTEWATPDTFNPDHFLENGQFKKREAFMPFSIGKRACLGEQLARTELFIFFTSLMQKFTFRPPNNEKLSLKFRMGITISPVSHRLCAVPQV

Cytochrome P450 1B1 [3] = molecular target: T1, Cytochrome P450 1B1; test: Inhibition of human CYP1B1 expressed in yeast microsomal membranes using 7-ethoxyresorufin as substrate measured after 10 mins by fluorescence assay; assay type: cell membranes
Homo sapiens [4] = species: Homo sapiens; test: Selectivity ratio of IC50 for recombinant human CYP3A4 to IC50 for recombinant human CYP1A1
Homo sapiens [5] = species: Homo sapiens; test: Selectivity ratio of IC50 for human CYP1B1 expressed in yeast microsomal membranes to IC50 for human CYP1A1 expressed in yeast microsomal membranes; assay type: cell membranes
Cytochrome P450 2E1 = Cytochrome P450 2E1 (Homo sapiens, UniProt P05181); test: Inhibition of human CYP2E1 expressed in yeast cells; assay type: ADME, cell-based
Cytochrome P450 1A2 = molecular target: T3, Cytochrome P450 1A2 (Homo sapiens, UniProt P05177); test: Inhibition of human CYP1A2 expressed in yeast microsomal membranes using 3-cyano-7-ethoxycoumarin as substrate measured after 10 mins by fluorescence assay; assay type: ADME, cell membranes, Microsomal Membrane
T3 sequence (P05177 whole entry): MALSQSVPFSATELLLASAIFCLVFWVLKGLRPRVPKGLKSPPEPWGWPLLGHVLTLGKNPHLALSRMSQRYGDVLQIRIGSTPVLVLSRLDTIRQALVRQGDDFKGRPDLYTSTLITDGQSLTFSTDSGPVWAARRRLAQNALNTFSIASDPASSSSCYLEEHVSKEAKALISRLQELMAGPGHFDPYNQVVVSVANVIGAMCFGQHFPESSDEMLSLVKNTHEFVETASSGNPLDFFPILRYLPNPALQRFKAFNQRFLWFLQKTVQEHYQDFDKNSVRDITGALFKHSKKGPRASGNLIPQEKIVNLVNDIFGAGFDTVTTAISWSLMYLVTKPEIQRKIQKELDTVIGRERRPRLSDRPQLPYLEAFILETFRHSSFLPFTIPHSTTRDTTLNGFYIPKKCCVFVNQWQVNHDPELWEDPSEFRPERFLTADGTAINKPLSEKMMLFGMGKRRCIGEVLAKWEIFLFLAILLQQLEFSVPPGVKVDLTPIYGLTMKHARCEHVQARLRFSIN

Cytochrome P450 2C19 = Cytochrome P450 2C19 (Homo sapiens, UniProt P33261); test: Inhibition of recombinant human CYP2C19 expressed in HEK293 cells using 3-cyano-7-ethoxycoumarin as substrate pretreated for 30 mins followed by substrate addition measured for 60 mins by fluorescence assay; assay type: ADME
Cytochrome P450 1A1 = molecular target: T4, Cytochrome P450 1A1 (Homo sapiens, UniProt P04798); test: Inhibition of recombinant human CYP1A1 expressed in HEK293 cells using 7-ethoxyresorufin as substrate pretreated for 30 mins followed by substrate addition measured for 60 mins by fluorescence assay; assay type: cell-based
T4 sequence (P04798 whole entry): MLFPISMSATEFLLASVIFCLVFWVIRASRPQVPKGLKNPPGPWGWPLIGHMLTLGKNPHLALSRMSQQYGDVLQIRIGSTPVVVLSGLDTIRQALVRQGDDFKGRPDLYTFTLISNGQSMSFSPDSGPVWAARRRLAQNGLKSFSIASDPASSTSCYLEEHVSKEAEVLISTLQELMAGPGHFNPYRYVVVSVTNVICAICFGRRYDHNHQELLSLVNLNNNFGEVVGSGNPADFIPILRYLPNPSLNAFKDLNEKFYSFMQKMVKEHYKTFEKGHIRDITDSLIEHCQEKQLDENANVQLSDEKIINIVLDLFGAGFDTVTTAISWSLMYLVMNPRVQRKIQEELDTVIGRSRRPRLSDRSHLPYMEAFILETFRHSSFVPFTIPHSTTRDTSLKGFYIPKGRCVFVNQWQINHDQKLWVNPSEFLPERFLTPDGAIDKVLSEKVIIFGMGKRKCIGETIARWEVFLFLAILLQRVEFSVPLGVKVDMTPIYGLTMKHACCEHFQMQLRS

Homo sapiens [6] = species: Homo sapiens; test: Selectivity ratio of IC50 for recombinant human CYP1A2 expressed in HEK293 cells to IC50 for recombinant human CYP1A1 expressed in HEK293 cells; assay type: cell-based

Cytochrome P450 2E1, sequence (P05181 whole entry): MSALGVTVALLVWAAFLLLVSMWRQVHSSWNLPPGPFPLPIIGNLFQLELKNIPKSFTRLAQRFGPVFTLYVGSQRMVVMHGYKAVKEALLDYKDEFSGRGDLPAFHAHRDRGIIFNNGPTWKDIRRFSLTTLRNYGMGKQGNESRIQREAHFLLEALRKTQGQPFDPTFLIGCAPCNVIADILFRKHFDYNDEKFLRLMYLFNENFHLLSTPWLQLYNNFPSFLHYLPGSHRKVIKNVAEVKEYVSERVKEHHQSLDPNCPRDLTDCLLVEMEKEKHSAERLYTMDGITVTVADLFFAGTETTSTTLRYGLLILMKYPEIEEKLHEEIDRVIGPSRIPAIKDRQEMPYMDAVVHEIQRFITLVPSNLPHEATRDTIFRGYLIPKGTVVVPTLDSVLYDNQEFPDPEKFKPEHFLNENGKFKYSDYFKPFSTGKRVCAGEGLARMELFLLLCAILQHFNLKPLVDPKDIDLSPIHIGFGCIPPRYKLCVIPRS
Cytochrome P450 2C19, sequence (P33261 whole entry): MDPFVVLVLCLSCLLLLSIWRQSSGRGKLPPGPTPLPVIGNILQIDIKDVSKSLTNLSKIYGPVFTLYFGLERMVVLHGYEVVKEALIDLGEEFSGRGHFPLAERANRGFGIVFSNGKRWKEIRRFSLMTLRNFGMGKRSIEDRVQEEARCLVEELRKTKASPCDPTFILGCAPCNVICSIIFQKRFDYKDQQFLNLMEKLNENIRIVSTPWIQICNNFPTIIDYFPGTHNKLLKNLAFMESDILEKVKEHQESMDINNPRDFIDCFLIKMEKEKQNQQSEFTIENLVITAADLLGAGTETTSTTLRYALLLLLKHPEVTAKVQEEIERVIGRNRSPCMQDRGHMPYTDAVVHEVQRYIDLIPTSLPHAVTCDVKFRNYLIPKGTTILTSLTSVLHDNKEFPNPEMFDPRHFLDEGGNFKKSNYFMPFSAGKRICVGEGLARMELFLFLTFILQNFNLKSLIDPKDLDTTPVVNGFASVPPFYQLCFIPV

COc1cc(/C=C/C(=O)c2ccncc2)cc(OC)c1OC
IC50 (Cytochrome P450 1B1 [1]): 6.12 µM
IC50 (Cytochrome P450 1B1 [2]): 8.18 µM
IC50 (Cytochrome P450 2J2): > 20 µM
IC50 (Cytochrome P450 1B1 [3]): 5.21 µM
Ratio IC50 (Homo sapiens [4]): > 100
Ratio IC50 (Homo sapiens [5]): > 10
IC50 (Cytochrome P450 2E1): > 10 µM
IC50 (Cytochrome P450 1A2): 1.09 µM
IC50 (Cytochrome P450 2C19): > 10 µM
IC50 (Cytochrome P450 1A1): 0.058 µM
Ratio IC50 (Homo sapiens [6]): < 10
